As usually defined, the TGI is the concentration giving total growth inhibition.

Holding throughout (assay): DTP human tumour cell line panel, 48 h
Assay [1] concerns HOP-92 NSCLC.
Assay [2] has as its system SNB-19 CNS.
In assay [3] the test system is A498 renal.
For assay [4], the system named is NCI-H226 lung.
Assay [5] has as its system UO-31 renal.
For assay [6], the system named is SF-539 CNS.
In assay [7] the test system is LOX IMVI melanoma.
In assay [8] the test system is OVCAR-5 ovarian.
Assay [9] has as its system MOLT-4 leukemia.
Assay [10] has as its system SNB-75 CNS.
The subject of assay [11] is MDA-MB-435.
Assay [12] relates to SK-MEL-28 melanoma.
Assay [13] deals with U251 CNS.
The test system of assay [14] is RXF 393 renal.
In assay [15] the test system is PC-3 prostate.
The subject of assay [16] is HL-60(TB) leukemia.
Assay [17] deals with NCI-H522 lung.

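48-hour exposure; five concentrations; linearly interpolated endpoints. TGI is the concentration that stops growth completely.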

For `CC(C)(C)N(Cc1ccccc1)C(=O)/C=C\S(=O)c1ccccc1` (stereo not drawn), the TGI in [1] came to 10.8 µM; in assay [2], 23.6 µM; in assay [3], 26.5 µM; in [4], 16.4 µM; in assay [5], 7.71 µM; in [6] it was 9.67 µM. Also, the TGI was 5.7 µM in assay [7]; 28.8 µM in [8]; 7.39 µM in [9]; 23.1 µM in assay [10]; 11.3 µM in assay [11]; 21.7 µM in assay [12]. Moreover, the TGI in assay [13] came out at 15.5 µM; in assay [14] it was 13.8 µM; in assay [15], 13.2 µM; in assay [16] it was 6.54 µM; in assay [17], 2.7 µM.
As to `Cc1cn2cc(-c3cccs3)nc2s1`, the TGI in assay [1], in assay [2], in assay [3], in assay [4], in assay [5] and in [6] was > 100 µM in each case. For the same compound, the TGI in assay [7], in assay [8], in [9], in assay [10], in assay [11] and in [12] was > 100 µM in each case. Further, the TGI in assay [13], in assay [14], in assay [15], in assay [16] and in assay [17] was > 100 µM each time.
Regarding `COc1cccc(OC)c1C1ON=C(c2ccccc2)N1C12CC3CC(CC(C3)C1)C2` (stereo not drawn), the TGI in [1] is 88.4 µM; in [2], > 100 µM; in [3], > 100 µM; in [4], > 100 µM; in [5] it was > 100 µM; in assay [6], > 100 µM. Besides, the TGI in assay [7], in assay [8], in [9], in assay [10], in [11] and in [12] was > 100 µM each time. Also, the TGI was > 100 µM in assay [13]; 11.9 µM in assay [14]; > 100 µM in [15]; 4.63 µM in [16]; > 100 µM in assay [17].
For the compound `O=C1C2C3C4C1C1C2[C@H](OCc2ccccc2)C3C1[C@H]4OCc1ccccc1` (stereo partly drawn), the TGI in assay [1] was 66.3 µM; in assay [2], > 100 µM; in [3], > 100 µM; in assay [4], > 100 µM; in [5] it was > 100 µM; in [6], > 100 µM. Further, the TGI in assay [7] is > 100 µM; in [8], 56 µM; in assay [9], > 100 µM; in assay [10], > 100 µM; in assay [11] it was > 100 µM; in assay [12] it was > 100 µM. The TGI was > 100 µM in assay [13]; > 100 µM in [14]; > 100 µM in assay [15]; 50.9 µM in [16]; 57.9 µM in assay [17].

(Values after PubChem BioAssay (NCI).)
